Reference: patent US6002008A, “Substituted 3-cyano quinolines” (American Cyanamid Company, priority 1998, dated 1999)
Values belong to the compound of their own block, whether it stands above or below them.

Columns and labels:
[1] = target: gastric (H^+ /K^+)-ATPase (Sus scrofa, UniProt P19156); conditions: Ife R. J., et al., J. Med. Chem., 35(18), 3413 (1992); cited from earlier work
[2] = target: recombinant human MEK 1 (MAPKK) and recombinant human ERK2 (MAPK); assay: Mitogen Activated Protein Kinase (MAPK) Assay, coupled MEK/ERK; type: biochemical; conditions: separate entries = evaluated more than once
Description: To evaluate inhibitors of the MAP (mitogen activated protein) kinase a two component coupled standard pharmacological test procedure, which measures phosphorylation of a serine/threonine residue in an appropriate sequence in the substrate in the presence and absence of a putative inhibitor, was used. Recombinant human MEK 1 (MAPKK) was first used to activate recombinant human ERK2 (MAPK) and the activated MAPK (ERK) was incubated with substrate (MBP peptide or MYC peptide) in the presence of ATP, Mg^+2 and radiolabeled ^33 P ATP. The phosphorylated peptide was captured on a P 81 phosphocellulose filter (paper filter or embedded in microtiter plate) washed and counted by scintillation methods.
The peptide substrates used in the assay are MBP, peptide substrate ([sequence]), or synthetic Myc substrate, ([sequence].cndot.5 TFA. The recombinant enzymes used were prepared as GST fusion proteins of human ERK 2 and human MEK 1. Inhibitor samples were prepared as 10× stocks in 10% DMSO and an appropriate aliquot was used to deliver either 10 ug/ml for a single point screening dose or 100, 10, 1, and 0.1 uM final concentration for a dose response curve. Final DMSO concentrations were less than or equal to 1%.
The reaction was run as follows in 50 mM Tris kinase buffer, pH 7.4 in a reaction volume of 50 ul. The appropriate volume of kinase buffer and inhibitor sample was added to the tube. Appropriate dilution of enzyme was delivered to give 2-5 ug recombinant MAPK (Erk) per tube. The inhibitor was incubated with MAPK (Erk) for min at 0 deg. […] Recombinant Mek (MAPKK) (0.5-2.5 ug) or fully activated Mek (0.05-0.1 units) was added to activate the Erk and incubated for 30 min at 30° C. […] Samples were incubated at 30° C. for 30 minutes and the reaction was stopped by adding 25 μl of ice cold 10% TCA After samples were chilled on ice for 30 min, 20 μl of sample was transferred onto P 81 phosphocellulose filter paper or appropriate MTP with embedded P 81 filter. Filter papers or MTP were washed 2 times with a large volume of 1% acetic acid, then 2 times with water. The filters or MTP were briefly air dried before addition of scintillant and samples were counted in the appropriate scintillation counter set up for reading ^33 P isotope.
The raw data was captured as cpm. Sample replicates were averaged and corrected for background count. Mean cpm data was tabulated by group and % inhibition by a test compound was calculated as (corrected cpm control-corrected. cpm sample/control)×100=% inhibition.

HL60 = assay: Inhibition of cancer cell growth as measured by cell number; type: cell-based, human; conditions: HL60, 48 hours
Excerpt: (§1) The cell lines were chosen since they overexpressed epidermal growth factor receptor (EGFR) (i.e. A431) or HER2/neu (SKBR3), or had little to no expression of the these receptors (SW620, LOX, MCF7).

[3] = tested on: human epidermoid tumors (A431); assay: In vivo inhibition of the growth of human epidermoid tumors (A431) in mice; set-up: species or system human tumor in BALB/c nu/nu female mice; conditions: for tumor growth was inhibited by: 100 mg/kg i.p. days 1-10
Description: Representative compounds of this invention (listed below) were evaluated in an in vivo standard pharmacological test procedure which measured its ability to inhibit the growth of human epidermoid tumors. […] BALB/c nu/nu female mice (Charles River, Wilmington, Mass.) were used in this in vivo standard pharmacological test procedure. […] When tumors attained a mass of between 100 and 150 mg, the mice were randomized into treatment groups (day zero). Mice were treated IP once a day either on days 1, 5, and 9 or on days 1 through 10 post staging with doses of either 80, 40 or 20 mg/kg/dose of the compound to be evaluated in 0.2% Klucel. Control animals received no drug. Tumor mass was determined every 7 days [(length X width^2)/2] for 28 days post staging. Relative tumor growth (Mean tumor mass on days 7, 14, 21, and 28 divided by the mean tumor mass on day zero) is determined for each treatment group.

PC3 = assay: Inhibition of cancer cell growth as measured by cell number; type: cell-based, human; conditions: PC3, 48 hours
Excerpt: as §1

[4] = target: T1, Epidermal Growth Factor Receptor Kinase (His-tagged cytoplasmic domain of EGFR) (Homo sapiens, UniProt P00533); assay: Inhibition of Epidermal Growth Factor Receptor Kinase (EGF-R) using recombinant enzyme; type: biochemical; conditions: average of number of tests, RR-SRC peptide
T1 construct: EGFR cDNA encoding amino acids 645-1186 preceded by Met-Ala-(His)6; made in house; host or cells: Sf9 insect cells, baculovirus vHcEGFR52
T1 sequence (P00533 669-1210): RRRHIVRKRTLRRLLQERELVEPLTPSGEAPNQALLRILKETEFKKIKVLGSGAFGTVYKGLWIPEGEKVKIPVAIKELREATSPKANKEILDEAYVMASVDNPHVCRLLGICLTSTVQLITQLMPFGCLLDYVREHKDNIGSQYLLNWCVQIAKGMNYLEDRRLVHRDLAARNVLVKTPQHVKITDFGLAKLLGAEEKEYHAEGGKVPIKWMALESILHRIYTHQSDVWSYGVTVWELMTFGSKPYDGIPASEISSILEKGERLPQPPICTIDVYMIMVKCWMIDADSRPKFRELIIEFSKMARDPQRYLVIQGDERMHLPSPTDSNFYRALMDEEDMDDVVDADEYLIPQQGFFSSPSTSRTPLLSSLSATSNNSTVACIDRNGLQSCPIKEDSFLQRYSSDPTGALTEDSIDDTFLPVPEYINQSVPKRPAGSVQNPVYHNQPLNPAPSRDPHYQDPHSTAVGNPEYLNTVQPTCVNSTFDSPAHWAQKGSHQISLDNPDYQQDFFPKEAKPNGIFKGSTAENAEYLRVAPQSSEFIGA
Description: Representative compounds of the invention were evaluated for their ability to inhibit the phosphorylation of the tyrosine residue of a peptide substrate catalyzed by the enzyme epidermal growth factor receptor kinase. […] The enzyme used in this assay is the His-tagged cytoplasmic domain of EGFR. A recombinant baculovirus (vHcEGFR52) was constructed containing the EGFR cDNA encoding amino acids 645-1186 preceded by Met-Ala-(His)6. Sf9 cells in 100 mm plates were infected at an moi of 10 pfu/cell and cells were harvested 48 h post infection. A cytoplasmic extract was prepared using 1% Triton X-100 and applied to Ni-NTA column. After washing the column with 20 mM imidazole, HcEGFR was eluted with 250 mM imidazole (in 50 mM NaHPO4, pH 8.0, 300 mM NaCl). […]
Compounds to be evaluated were made into 10 mg/mL stock solutions in 100% dimethylsulfoxide (DMSO). […]
For the enzyme reaction, 10 μL of each inhibitor (at various concentrations) were added to each well of a 96-well plate. […] The filter discs were washed 2× with 0.5% phosphoric acid and radioactivity was measured using a liquid scintillation counter.
The % inhibition of the test compound was determined for at least three different concentrations and the IC50 value was evaluated from the dose response curve. […]

[5] = target: T2, Kinase insert Domain containing Receptor (KDR; the catalytic domain of the VEGF receptor) (Homo sapiens, UniProt P35968); assay: Inhibition of Kinase insert Domain containing Receptor (KDR); type: biochemical
T2 construct: KDR; the catalytic domain of the VEGF receptor
T2 sequence (P35968 834-1162 limits assumed): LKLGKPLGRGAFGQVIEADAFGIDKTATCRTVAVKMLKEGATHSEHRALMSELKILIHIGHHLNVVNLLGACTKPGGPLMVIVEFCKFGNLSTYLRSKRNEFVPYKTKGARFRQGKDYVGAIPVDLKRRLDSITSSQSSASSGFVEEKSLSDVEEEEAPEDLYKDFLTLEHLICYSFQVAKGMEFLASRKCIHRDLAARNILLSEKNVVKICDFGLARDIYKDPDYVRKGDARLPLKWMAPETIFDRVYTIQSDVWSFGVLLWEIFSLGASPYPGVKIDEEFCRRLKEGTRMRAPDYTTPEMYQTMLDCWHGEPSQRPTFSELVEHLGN
Description: In this standard pharmacological test procedure, KDR protein is mixed, in the presence or absence of a inhibitor compound, with a substrate peptide to be phosphorylated (a copolymer of glutamic acid and tyrosine, E:Y::4:1) and other cofacters such as Mg^++ and sodium vanadate (a protein tyrosine phosphatase inhibitor) in an appropriate buffer to maintain pH (7.2). ATP and a radioactive tracer (either P^32 - or P^33 -labeled ATP) is then add to initiate phosphorylation. After incubation, the radioactive phosphate associated with the acid-insoluble fraction of the assay mixture is then qualified as reflection of substrate phosphorylation.

SKBR3 = assay: Inhibition of cancer cell growth as measured by cell number; type: cell-based, human; conditions: SKBR3, 48 hours, Table 8
Excerpt: as §1

[6] = Table 10, 80 IP days 1, 5, 9, day 7
[7] = Table 10, 80 IP days 1, 5, 9, day 14
[8] = Table 10, 80 IP days 1, 5, 9, day 21
[9] = Table 10, 80 IP days 1, 5, 9, day 28
[10] = Table 10, 80 PO days 1-10, day 7
[11] = Table 10, 80 PO days 1-10, day 14
[12] = Table 10, 80 PO days 1-10, day 21
[13] = Table 10, 80 PO days 1-10, day 28
[14] = Table 11, 80 IP days 1, 5, 9, day 7
[15] = Table 11, 80 IP days 1, 5, 9, day 14
[16] = Table 11, 80 IP days 1, 5, 9, day 21
[17] = Table 11, 80 IP days 1, 5, 9, day 28
[18] = Table 11, 80 PO days 1-10, day 7
[19] = Table 11, 80 PO days 1-10, day 14
[20] = Table 11, 80 PO days 1-10, day 21
[21] = Table 11, 80 PO days 1-10, day 28

Chain of gastric (H^+ /K^+)-ATPase (P19156 2-1034 limits assumed): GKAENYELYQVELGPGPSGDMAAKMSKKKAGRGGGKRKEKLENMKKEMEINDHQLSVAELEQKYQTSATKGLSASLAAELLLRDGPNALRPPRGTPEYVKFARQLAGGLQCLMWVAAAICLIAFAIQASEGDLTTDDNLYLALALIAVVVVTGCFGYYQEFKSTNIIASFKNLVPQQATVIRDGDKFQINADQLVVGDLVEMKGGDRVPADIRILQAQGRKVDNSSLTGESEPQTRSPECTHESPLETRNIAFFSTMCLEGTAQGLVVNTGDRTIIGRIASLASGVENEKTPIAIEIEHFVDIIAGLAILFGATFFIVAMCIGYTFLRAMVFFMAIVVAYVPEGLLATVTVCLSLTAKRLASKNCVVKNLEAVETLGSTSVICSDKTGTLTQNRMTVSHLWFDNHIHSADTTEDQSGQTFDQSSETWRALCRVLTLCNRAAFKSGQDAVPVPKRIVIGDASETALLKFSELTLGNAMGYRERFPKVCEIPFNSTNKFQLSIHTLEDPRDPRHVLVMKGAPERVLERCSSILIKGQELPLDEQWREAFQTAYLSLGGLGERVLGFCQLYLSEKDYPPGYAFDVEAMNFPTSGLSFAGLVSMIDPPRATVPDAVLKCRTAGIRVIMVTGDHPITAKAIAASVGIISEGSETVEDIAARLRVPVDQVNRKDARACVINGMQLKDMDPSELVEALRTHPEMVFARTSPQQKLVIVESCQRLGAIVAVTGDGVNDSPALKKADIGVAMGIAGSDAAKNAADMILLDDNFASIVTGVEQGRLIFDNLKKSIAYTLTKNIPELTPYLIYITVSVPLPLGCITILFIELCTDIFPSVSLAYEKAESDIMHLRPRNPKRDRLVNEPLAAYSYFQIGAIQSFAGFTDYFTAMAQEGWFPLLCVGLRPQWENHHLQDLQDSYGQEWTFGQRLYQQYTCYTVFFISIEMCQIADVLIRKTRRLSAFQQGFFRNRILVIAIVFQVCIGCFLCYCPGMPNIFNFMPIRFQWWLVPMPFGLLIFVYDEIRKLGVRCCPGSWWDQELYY
Chain of gastric (H^+ /K^+)-ATPase (P18434 whole entry partner): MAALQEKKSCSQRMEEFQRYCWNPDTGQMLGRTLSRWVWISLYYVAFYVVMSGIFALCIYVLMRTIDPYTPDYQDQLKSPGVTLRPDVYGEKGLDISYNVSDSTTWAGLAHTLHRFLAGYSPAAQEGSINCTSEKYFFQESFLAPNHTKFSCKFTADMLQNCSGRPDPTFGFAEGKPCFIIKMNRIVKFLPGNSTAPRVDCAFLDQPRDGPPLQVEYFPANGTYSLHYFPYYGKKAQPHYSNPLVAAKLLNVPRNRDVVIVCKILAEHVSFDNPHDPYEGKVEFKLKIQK

Compound: Cc1ccccc1Nc1c(C#N)cnc2ccccc12
- gastric (H+/K+)-ATPase inhibitory activity [1]: inhibitory activity at high concentrations

- IC50 [2]: > 100 µM
Compound: 4-(3-Bromophenylamino)-6,7-di-methoxymethyl-3-quinolinecarbonitrile [Example 325]

- Inhibition of Cancer Cell Growth as Measured by Cell Number (IC50) (HL60): > 1.00 µg/mL
Compound: COc1cc2ncc(C#N)c(Nc3cccc(C#N)c3)c2cc1OC [Example 45, 4-[(3-Cyanophenyl)amino]-6,7-dimethoxy-3-quinolinecarbonitrile]

- Inhibition of Cancer Cell Growth as Measured by Cell Number (IC50) (PC3): 0.11 µg/mL
Compound: CCOc1cc2ncc(C#N)c(Nc3cccc(Br)c3)c2cc1OCC [Example 47, 4-[(3-Bromophenyl)amino]-6,7-diethoxy-3-quinolinecarbonitrile]
- % T/C ([3]; 40 mg/kg/dose IP days 1-10, day 7): 69%
- % T/C ([3]; 40 mg/kg/dose IP days 1-10, day 14): 74%
- % T/C ([3]; 40 mg/kg/dose IP days 1-10, day 21): 116%
- % T/C ([3]; 40 mg/kg/dose IP days 1-10, day 28): 136%
- % T/C ([3]; 50 mg/kg/dose IP days 1-10, day 7): 44%
- % T/C ([3]; 50 mg/kg/dose IP days 1-10, day 14): 55%
- % T/C ([3]; 50 mg/kg/dose IP days 1-10, day 21): 87%
- % T/C ([3]; 50 mg/kg/dose IP days 1-10, day 28): 102%
- tumor growth was inhibited by ([3]; day 7): 66%
- tumor growth was inhibited by ([3]; day 14): 63%
- tumor growth was inhibited by ([3]; day 21): 49%
- tumor growth was inhibited by ([3]; day 28): 57%
- % T/C ([3]; 100 mg/kg/dose IP days 1-10, day 7): 34%
- % T/C ([3]; 100 mg/kg/dose IP days 1-10, day 14): 37%
- % T/C ([3]; 100 mg/kg/dose IP days 1-10, day 21): 51%
- % T/C ([3]; 100 mg/kg/dose IP days 1-10, day 28): 43%
- Tumor growth inhibition, dose dependence ([3]; i.p. days 1-10): appeared to be dose dependent

- IC50 [4]: 0.03 µM
Compound: CN(C)CC=CC(=O)Nc1ccc2ncc(C#N)c(Nc3cccc(Br)c3)c2c1 [Example 99, 4-Dimethylamino-but-2-enoic acid [4-(3-bromo-phenylamino)-3-cyano-quinolin-6-yl]-amide]

- IC50 [4]: 0.1 µM
Compound: CCN(CC)CC=CC(=O)Nc1ccc2ncc(C#N)c(Nc3cccc(Br)c3)c2c1 [Example 100, 4-Diethylamino-but-2-enoic acid [4-(3-bromo-phenylamino)-3-cyano-quinolin-6-yl]-amide]

- IC50 [2]: 100 µM
Compound: C=CC(=O)Nc1cc(CN(C)C)c2ncc(C#N)c(Nc3cccc(Br)c3)c2c1 [Example 111, N-{4-[(3-Bromophenyl)amino]-3-cyano-8-dimethylaminomethyl-6-quinolinyl}-2-propenamide]

- KDR IC50 [5]: 30 µg/mL
Compound: C=CC(=O)Nc1ccc2ncc(C#N)c(Nc3cccc(C#N)c3)c2c1 [Example 160, N-{3-Cyano-4-[(3-cyanophenyl)amino]-6-quinolinyl}-2-propenamide]

Compound: C=C(CN1CCOCC1)C(=O)Nc1ccc2ncc(C#N)c(Nc3cccc(Br)c3)c2c1 [Example 171, N-{4-[(3-Bromophenyl)amino]-3-cyano-6-quinolinyl}-2-morpholin-4-ylmethyl-2-propenamide]
- IC50 [2]: 100 µM

- Inhibition of Cancer Cell Growth as Measured by Cell Number (IC50) (SKBR3): 0.1 µg/mL
Compound: COc1cc2ncc(C#N)c(Nc3ccc(F)c(Cl)c3)c2cc1NC(=O)C=CCN(C)C [Example 203, 4-Dimethylamino-but-2-enoic acid [4-(3-chloro-4-fluoro-phenylamino)-3-cyano-7-methoxy-quinolin-6-yl]-amide]
- % T/C [3, 6]: 20%
- % T/C [3, 7]: 12%
- % T/C [3, 8]: 14%
- % T/C [3, 9]: 16%
- % T/C [3, 10]: 15%
- % T/C [3, 11]: 8%
- % T/C [3, 12]: 12%
- % T/C [3, 13]: 17%

Compound: CCN(CC)CC=CC(=O)Nc1cc2c(Nc3ccc(F)c(Cl)c3)c(C#N)cnc2cc1OC [Example 204, 4-Diethylamino-but-2-enoic acid [4-(3-chloro-4-fluoro-phenylamino)-3-cyano-7-methoxy-quinolin-6-yl]-amide]
- % T/C [3, 6]: 45%
- % T/C [3, 7]: 42%
- % T/C [3, 8]: 55%
- % T/C [3, 9]: 49%
- % T/C [3, 10]: 25%
- % T/C [3, 11]: 18%
- % T/C [3, 12]: 43%
- % T/C [3, 13]: 51%

Compound: COc1cc2ncc(C#N)c(Nc3ccc(F)c(Cl)c3)c2cc1NC(=O)C=CCN1CCOCC1 [Example 205, 4-Morpholin-4-yl-but-2-enoic acid [4-(3-chloro-4-fluoro-phenylamino)-3-cyano-7-methoxy-quinolin-6-yl]-amide]
- % T/C [3, 6]: 30%
- % T/C [3, 7]: 25%
- % T/C [3, 8]: 38%
- % T/C [3, 9]: 61%
- % T/C [3, 10]: 23%
- % T/C [3, 11]: 19%
- % T/C [3, 12]: 23%
- % T/C [3, 13]: 29%

Compound: COc1cc2ncc(C#N)c(Nc3ccc(F)c(Br)c3)c2cc1NC(=O)C=CCN(C)C [Example 208, 4-Dimethylamino-but-2-enoic acid [4-(3-bromo-4-fluoro-phenylamino)-3-cyano-7-methoxy-quinolin-6-yl]-amide]
- % T/C [3, 14]: 14%
- % T/C [3, 15]: 15%
- % T/C [3, 16]: 26%
- % T/C [3, 17]: 32%
- % T/C [3, 18]: 6%
- % T/C [3, 19]: 6%
- % T/C [3, 20]: 8%
- % T/C [3, 21]: 10%

- KDR IC50 [5]: 30 µg/mL
Compound: CCN(CC)CC=CC(=O)Nc1cc2c(Nc3ccc(F)c(Br)c3)c(C#N)cnc2cc1OC [Example 209, 4Diethylamino-but-2-enoic acid [4(3-bromo-4-fluoro-phenylamino)-3-cyano-7-methoxy-quinolin-6-yl]-amide]

- KDR IC50 [5]: 30 µg/mL
Compound: CCOc1cc2ncc(C#N)c(Nc3cccc(Br)c3)c2cc1NC(=O)C=CCN(C)C [Example 216, 4-Dimethylamino-but-2-enoic acid [4-(3-bromo-phenylamino)-3-cyano-7-ethoxy-quinolin-6-yl]-amide]
- % T/C [3, 14]: 14%
- % T/C [3, 15]: 12%
- % T/C [3, 16]: 17%
- % T/C [3, 17]: 19%
- % T/C [3, 18]: 6%
- % T/C [3, 19]: 6%
- % T/C [3, 20]: 12%
- % T/C [3, 21]: 21%

- KDR IC50 [5]: 30 µg/mL
Compound: CCOc1cc2ncc(C#N)c(Nc3cccc(Br)c3)c2cc1NC(=O)C=CCN(CC)CC [Example 217, 4-Diethylamino-but-2-enoic acid [4-(3-bromo-phenylamino)-3-cyano-7-ethoxy-quinolin-6-yl]-amide]
- % T/C [3, 14]: 25%
- % T/C [3, 15]: 36%
- % T/C [3, 16]: 51%
- % T/C [3, 17]: 56%
- % T/C [3, 18]: 30%
- % T/C [3, 19]: 33%
- % T/C [3, 20]: 43%
- % T/C [3, 21]: 42%

- IC50 [2]: > 100 µM
Compound: COc1ccc(OC)c2c(Nc3ccc(Cl)cc3F)c(C#N)cnc12 [Example 238, 4-(4-Chloro-2-fluoro-phenylamino)-5.8-dimethoxyquinoline-3-carbonitrile]

Compound: CCOc1cc2[nH]cc(C#N)c(=O)c2cc1OCC [Example 252, 1,4-Dihydroquinoline-6,7-diethoxy-4-oxo-3-carbonitrile]
- IC50 [2]: 100 µM

- KDR IC50 [5]: 30 µg/mL
Compound: COc1ccc2ncc(C#N)c(Nc3ccc(Cl)cc3F)c2c1 [Example 283, 4-(4-Chloro-2-fluoro-phenylamino)-6-methoxy-quinoline-3-carbonitrile]

- KDR IC50 [5]: 30 µg/mL
Compound: COc1ccc2ncc(C#N)c(Nc3ccc(C)c(O)c3)c2c1 [Example 284, 4-(3-Hydroxy-4-methyl-phenylamino)-6-methoxy-quinoline-3-carbonitrile]

Compound: CCCCOc1cc2ncc(C#N)c(Nc3cccc(Br)c3)c2cc1OCCCC [Example 305, 4(3-Bromophenylamino)-6,7-di-n-butoxy-3-quinolinecarbonitrile]
- KDR IC50 [5]: 30 µg/mL

- KDR IC50 [5]: 30 µg/mL
Compound: COc1ccc2c(Nc3ccc(Cl)cc3F)c(C#N)cnc2c1 [Example 307, 4-(4-Chloro-2-fluorophenylamino)-7-methoxy-3-quinolinecarbonitrile]

- KDR IC50 [5]: 30 µg/mL
Compound: N#Cc1cnc2cc(O)ccc2c1Nc1ccc(Cl)cc1F [Example 308, 4-(4-Chloro-2-fluorophenylamino)-7-hydroxy-3-quinolinecarbonitrile]

- IC50 [2]: 70 µM
Compound: COCCOc1cc2ncc(C#N)c(Nc3cccc(Br)c3)c2cc1OCCOC [Example 311, 4-[(3-Bromophenyl)amino]-6,7-bis(2-methoxyethoxy)-3-quinolinecarbonitrile]

- IC50 [2]: 100 µM
Compound: COc1cc2ncc(C#N)c(Nc3cccc(C(C)=O)c3)c2cc1OC [Example 324, 4(3-acetylphenylamino)-6,7-dimethoxy-3-quinolinecarbonitrile]
